According to article PMC7745444 (ACS Omega, 2020):

Assays:
β-galactosidase = β-galactosidase (Escherichia coli, UniProt P00722); test: p-nitrophenyl galactopyranoside hydrolysis, absorbance at […] nm; format: biochemical
β-glucosidase = test: p-nitrophenyl glucopyranoside hydrolysis, absorbance at […] nm; format: biochemical, Prunus dulcis

β-galactosidase, sequence (P00722 2-1024): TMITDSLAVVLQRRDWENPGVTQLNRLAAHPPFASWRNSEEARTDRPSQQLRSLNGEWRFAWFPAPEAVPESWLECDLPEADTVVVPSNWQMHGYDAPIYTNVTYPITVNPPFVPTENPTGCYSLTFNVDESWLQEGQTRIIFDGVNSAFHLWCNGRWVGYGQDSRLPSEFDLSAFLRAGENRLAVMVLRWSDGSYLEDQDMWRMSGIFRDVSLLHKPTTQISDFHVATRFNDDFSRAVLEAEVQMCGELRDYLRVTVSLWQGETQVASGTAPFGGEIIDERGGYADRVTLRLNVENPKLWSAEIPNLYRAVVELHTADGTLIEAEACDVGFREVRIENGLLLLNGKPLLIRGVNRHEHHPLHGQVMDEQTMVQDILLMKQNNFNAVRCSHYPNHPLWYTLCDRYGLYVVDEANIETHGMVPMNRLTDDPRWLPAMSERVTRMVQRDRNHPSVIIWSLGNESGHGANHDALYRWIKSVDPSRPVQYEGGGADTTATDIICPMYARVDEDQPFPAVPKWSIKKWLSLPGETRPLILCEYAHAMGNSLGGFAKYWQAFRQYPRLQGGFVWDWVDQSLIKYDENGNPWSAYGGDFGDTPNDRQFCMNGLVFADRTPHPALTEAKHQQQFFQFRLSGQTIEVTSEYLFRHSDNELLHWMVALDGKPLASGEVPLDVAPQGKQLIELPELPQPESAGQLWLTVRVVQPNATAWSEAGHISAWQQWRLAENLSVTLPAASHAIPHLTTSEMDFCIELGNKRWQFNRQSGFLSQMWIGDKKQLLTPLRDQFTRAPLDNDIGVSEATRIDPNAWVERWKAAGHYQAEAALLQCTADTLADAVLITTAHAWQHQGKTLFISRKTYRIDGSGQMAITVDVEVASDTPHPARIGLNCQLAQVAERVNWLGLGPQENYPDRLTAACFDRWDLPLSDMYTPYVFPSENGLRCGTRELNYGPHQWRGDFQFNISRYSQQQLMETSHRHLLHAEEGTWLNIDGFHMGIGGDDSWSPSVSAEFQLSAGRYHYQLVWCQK

Compound | Ki (β-galactosidase) [µM] | Ki (β-glucosidase) [µM]
O=C(O)[C@H]1[C@@H]2CN[C@H](CO)[C@@H](O)[C@@H]21 [8a, (1R,4R,5S,6S,7S)-5-Hydroxy-4-(hydroxymethyl)-3-azabicyclo[4.1.0]heptane-7-carboxylic Acid] | 1180 | 
CN1C[C@H]2[C@H](CO)[C@H]2[C@H](O)[C@H]1CO [compound 9, (1S,4R,5S,6S,7S)-4,7-bis(Hydroxymethyl)-3-methyl-3-azabicyclo[4.1.0]heptan-5-ol] |  | 4430
